Measurements published in patent publication US6555091B1, “Polypeptide capable of reacting with antibodies of patients suffering from multiple sclerosis and uses” (Bio Merieux, priority 1997, dated 2003).
No end group written: not given here.

Test system: IgG of sera from MS patients and healthy individuals
Test: ELISA of biotinylated synthetic peptides, IgG response of individual human sera
Assay type: binding
Conditions: for MS sera giving a positive IgG signal compared with the negative serum which gave the highest signal: 1/100 dilutions of 11 sera from MS patients at the remission stage; for MS sera giving a positive IgG signal compared with the negative serum which gave the highest signal / MS sera recognizing the peptide significantly, cut-off mean of negative sera plus 3 times the standard deviation: 4 negative sera; for MS sera recognizing the peptide significantly, cut-off mean of negative sera plus 3 times the standard deviation / BASELINE / MEAN / OD 1 / OD 2 / OD 3 / BASELINE (mark: above cut-off): IgG; for MS sera recognizing the peptide significantly, cut-off mean of negative sera plus 3 times the standard deviation: 1/100 dilutions of 11 MS remission sera; for BASELINE: cut-off, mean of negative sera plus 3 times the standard deviation; for MEAN / OD 1 / OD 2 / OD 3 / BASELINE (mark: above cut-off): 1/100
Protocol: Depending on the information obtained from the preceding examples, the hexapeptides SEQ ID NO: 3 and SEQ ID NO: 4 were synthesized and biotinylated according to the method described in Patent Application No. EP 93420183 with the following modifications: the peptide still bound to the resin is selectively deprotected at the N-terminal position. After overnight incubation with the biotin-NHS at 50% in DMF, the peptide is then cleaved from the resin and treated as described in the patent cited above.
The wells of a Maxisorb (trade name, Nunc) microtiter plate are saturated with 100 μl of a 50 mM NaHCO3 solution, pH 9.6, containing 10 μg/ml of streptavidin for 2 hours at 37° C. The plate is washed with TBS/0.05% Tween 20 buffer. The wells are then saturated with 250 μl of wash buffer supplemented with 10% goat serum for 1 hour at 37° C. and then washed as described above.
The sera to be analyzed are diluted 1/100 in saturation buffer, supplemented with 0.05% Tween 20 and incubated for 2 hours at 37° C. After washing, a solution of peroxidase-labeled anti-human immunoglobulin G goat antibody conjugate (marketed by Jackson Immuno Research Laboratories Inc.) is added at the dilution of 1/10,000 and the plates are incubated for 1 hour at 37° C. After washes, the ortho-phenylenediamine (OPD) substrate is added and the reaction is stopped after 10 minutes by adding 50 μl of H2SO4. The optical density is read at 492 nm.
In a test carried out with 1/100 dilutions of 11 English sera from MS patients at the remission stage and 4 negative English sera, the peptides SEQ ID NOs: 3 and 4 are recognized by 4 sera out of 11 which give a positive IgG signal compared with the negative serum which gave the highest signal.

Substance: STGRPL [SEQ ID NO: 4]
- MS sera giving a positive IgG signal compared with the negative serum which gave the highest signal: 4 sera out of 11
- MS sera recognizing the peptide significantly, cut-off mean of negative sera plus 3 times the standard deviation: 3 sera out of 11
- BASELINE: 674 optical density (×1000)
- MEAN (serum 33/6 (MS+, remission)): 496 optical density (×1000)
- OD 1 (serum 33/6 (MS+, remission)): 465 optical density (×1000)
- OD 2 (serum 33/6 (MS+, remission)): 496 optical density (×1000)
- OD 3 (serum 33/6 (MS+, remission)): 525 optical density (×1000)
- BASELINE (mark: above cut-off) (serum 33/8 (MS+, remission)): X (the mean of the values obtained with the negative sera is calculated and 3 times the standard deviation is added in order to determine a cut-off)
- MEAN (serum 33/8 (MS+, remission)): 807 optical density (×1000)
- OD 1 (serum 33/8 (MS+, remission)): 849 optical density (×1000)
- OD 2 (serum 33/8 (MS+, remission)): 820 optical density (×1000)
- OD 3 (serum 33/8 (MS+, remission)): 753 optical density (×1000)
- MEAN (serum 33/18 (MS+, remission)): 267 optical density (×1000)
- OD 1 (serum 33/18 (MS+, remission)): 258 optical density (×1000)
- OD 2 (serum 33/18 (MS+, remission)): 243 optical density (×1000)
- OD 3 (serum 33/18 (MS+, remission)): 299 optical density (×1000)
- MEAN (serum No. 12 (MS−, healthy)): 518 optical density (×1000)
- OD 1 (serum No. 12 (MS−, healthy)): 567 optical density (×1000)
- OD 2 (serum No. 12 (MS−, healthy)): 518 optical density (×1000)
- OD 3 (serum No. 12 (MS−, healthy)): 469 optical density (×1000)
- MEAN (serum No. 13 (MS−, healthy)): 271 optical density (×1000)
- OD 1 (serum No. 13 (MS−, healthy)): 286 optical density (×1000)
- OD 2 (serum No. 13 (MS−, healthy)): 278 optical density (×1000)
- OD 3 (serum No. 13 (MS−, healthy)): 268 optical density (×1000)
- MEAN (serum No. 14 (MS−, healthy)): 359 optical density (×1000)
- OD 1 (serum No. 14 (MS−, healthy)): 322 optical density (×1000)
- OD 2 (serum No. 14 (MS−, healthy)): 401 optical density (×1000)
- OD 3 (serum No. 14 (MS−, healthy)): 354 optical density (×1000)
- MEAN (serum No. 15 (MS−, healthy)): 442 optical density (×1000)
- OD 1 (serum No. 15 (MS−, healthy)): 423 optical density (×1000)
- OD 2 (serum No. 15 (MS−, healthy)): 432 optical density (×1000)
- OD 3 (serum No. 15 (MS−, healthy)): 470 optical density (×1000)
- MEAN (serum QS 2 (MS+, remission)): 277 optical density (×1000)
- OD 1 (serum QS 2 (MS+, remission)): 267 optical density (×1000)
- OD 2 (serum QS 2 (MS+, remission)): 296 optical density (×1000)
- OD 3 (serum QS 2 (MS+, remission)): 267 optical density (×1000)
- MEAN (serum QS 3 (MS+, remission)): 624 optical density (×1000)
- OD 1 (serum QS 3 (MS+, remission)): 668 optical density (×1000)
- OD 2 (serum QS 3 (MS+, remission)): 618 optical density (×1000)
- OD 3 (serum QS 3 (MS+, remission)): 585 optical density (×1000)
- BASELINE (mark: above cut-off) (serum QS 4 (MS+, remission)): X (the mean of the values obtained with the negative sera is calculated and 3 times the standard deviation is added in order to determine a cut-off)
- MEAN (serum QS 4 (MS+, remission)): 1026 optical density (×1000)
- OD 1 (serum QS 4 (MS+, remission)): 1096 optical density (×1000)
- OD 2 (serum QS 4 (MS+, remission)): 1120 optical density (×1000)
- OD 3 (serum QS 4 (MS+, remission)): 862 optical density (×1000)
- MEAN (serum QS 6 (MS+, remission)): 206 optical density (×1000)
- OD 1 (serum QS 6 (MS+, remission)): 204 optical density (×1000)
- OD 2 (serum QS 6 (MS+, remission)): 212 optical density (×1000)
- OD 3 (serum QS 6 (MS+, remission)): 201 optical density (×1000)
- BASELINE (mark: above cut-off) (serum QS 7 (MS+, remission)): X (the mean of the values obtained with the negative sera is calculated and 3 times the standard deviation is added in order to determine a cut-off)
- MEAN (serum QS 7 (MS+, remission)): 1380 optical density (×1000)
- OD 1 (serum QS 7 (MS+, remission)): 1379 optical density (×1000)
- OD 2 (serum QS 7 (MS+, remission)): 1437 optical density (×1000)
- OD 3 (serum QS 7 (MS+, remission)): 1323 optical density (×1000)
- MEAN (serum QS 8 (MS+, remission)): 552 optical density (×1000)
- OD 1 (serum QS 8 (MS+, remission)): 523 optical density (×1000)
- OD 2 (serum QS 8 (MS+, remission)): 504 optical density (×1000)
- OD 3 (serum QS 8 (MS+, remission)): 630 optical density (×1000)
- MEAN (serum QS 11 (MS+, remission)): 269 optical density (×1000)
- OD 1 (serum QS 11 (MS+, remission)): 272 optical density (×1000)
- OD 2 (serum QS 11 (MS+, remission)): 273 optical density (×1000)
- OD 3 (serum QS 11 (MS+, remission)): 261 optical density (×1000)
- MEAN (serum QS 12 (MS+, remission)): 237 optical density (×1000)
- OD 1 (serum QS 12 (MS+, remission)): 271 optical density (×1000)
- OD 2 (serum QS 12 (MS+, remission)): 227 optical density (×1000)
- OD 3 (serum QS 12 (MS+, remission)): 212 optical density (×1000)

Substance: LQQAVF [SEQ ID NO: 3]
- MS sera giving a positive IgG signal compared with the negative serum which gave the highest signal: 4 sera out of 11
- MS sera recognizing the peptide significantly, cut-off mean of negative sera plus 3 times the standard deviation: 3 sera out of 11
- BASELINE: 815 optical density (×1000)
- MEAN (serum 33/6 (MS+, remission)): 587 optical density (×1000)
- OD 1 (serum 33/6 (MS+, remission)): 535 optical density (×1000)
- OD 2 (serum 33/6 (MS+, remission)): 599 optical density (×1000)
- OD 3 (serum 33/6 (MS+, remission)): 626 optical density (×1000)
- BASELINE (mark: above cut-off) (serum 33/8 (MS+, remission)): X (the mean of the values obtained with the negative sera is calculated and 3 times the standard deviation is added in order to determine a cut-off)
- MEAN (serum 33/8 (MS+, remission)): 1067 optical density (×1000)
- OD 1 (serum 33/8 (MS+, remission)): 990 optical density (×1000)
- OD 2 (serum 33/8 (MS+, remission)): 941 optical density (×1000)
- OD 3 (serum 33/8 (MS+, remission)): 1271 optical density (×1000)
- MEAN (serum 33/18 (MS+, remission)): 395 optical density (×1000)
- OD 1 (serum 33/18 (MS+, remission)): 601 optical density (×1000)
- OD 2 (serum 33/18 (MS+, remission)): 339 optical density (×1000)
- OD 3 (serum 33/18 (MS+, remission)): 246 optical density (×1000)
- MEAN (serum No. 12 (MS−, healthy)): 639 optical density (×1000)
- OD 1 (serum No. 12 (MS−, healthy)): 550 optical density (×1000)
- OD 2 (serum No. 12 (MS−, healthy)): 640 optical density (×1000)
- OD 3 (serum No. 12 (MS−, healthy)): 726 optical density (×1000)
- MEAN (serum No. 13 (MS−, healthy)): 377 optical density (×1000)
- OD 1 (serum No. 13 (MS−, healthy)): 366 optical density (×1000)
- OD 2 (serum No. 13 (MS−, healthy)): 369 optical density (×1000)
- OD 3 (serum No. 13 (MS−, healthy)): 407 optical density (×1000)
- MEAN (serum No. 14 (MS−, healthy)): 307 optical density (×1000)
- OD 1 (serum No. 14 (MS−, healthy)): 367 optical density (×1000)
- OD 2 (serum No. 14 (MS−, healthy)): 285 optical density (×1000)
- OD 3 (serum No. 14 (MS−, healthy)): 270 optical density (×1000)
- MEAN (serum No. 15 (MS−, healthy)): 452 optical density (×1000)
- OD 1 (serum No. 15 (MS−, healthy)): 439 optical density (×1000)
- OD 2 (serum No. 15 (MS−, healthy)): 496 optical density (×1000)
- OD 3 (serum No. 15 (MS−, healthy)): 422 optical density (×1000)
- MEAN (serum QS 2 (MS+, remission)): 309 optical density (×1000)
- OD 1 (serum QS 2 (MS+, remission)): 294 optical density (×1000)
- OD 2 (serum QS 2 (MS+, remission)): 339 optical density (×1000)
- OD 3 (serum QS 2 (MS+, remission)): 293 optical density (×1000)
- MEAN (serum QS 3 (MS+, remission)): 727 optical density (×1000)
- OD 1 (serum QS 3 (MS+, remission)): 618 optical density (×1000)
- OD 2 (serum QS 3 (MS+, remission)): 784 optical density (×1000)
- OD 3 (serum QS 3 (MS+, remission)): 779 optical density (×1000)
- BASELINE (mark: above cut-off) (serum QS 4 (MS+, remission)): X (the mean of the values obtained with the negative sera is calculated and 3 times the standard deviation is added in order to determine a cut-off)
- MEAN (serum QS 4 (MS+, remission)): 1346 optical density (×1000)
- OD 1 (serum QS 4 (MS+, remission)): 1161 optical density (×1000)
- OD 2 (serum QS 4 (MS+, remission)): 1293 optical density (×1000)
- OD 3 (serum QS 4 (MS+, remission)): 1583 optical density (×1000)
- MEAN (serum QS 6 (MS+, remission)): 325 optical density (×1000)
- OD 1 (serum QS 6 (MS+, remission)): 306 optical density (×1000)
- OD 2 (serum QS 6 (MS+, remission)): 263 optical density (×1000)
- OD 3 (serum QS 6 (MS+, remission)): 407 optical density (×1000)
- BASELINE (mark: above cut-off) (serum QS 7 (MS+, remission)): X (the mean of the values obtained with the negative sera is calculated and 3 times the standard deviation is added in order to determine a cut-off)
- MEAN (serum QS 7 (MS+, remission)): 1355 optical density (×1000)
- OD 1 (serum QS 7 (MS+, remission)): 1307 optical density (×1000)
- OD 2 (serum QS 7 (MS+, remission)): 1298 optical density (×1000)
- OD 3 (serum QS 7 (MS+, remission)): 1461 optical density (×1000)
- MEAN (serum QS 8 (MS+, remission)): 615 optical density (×1000)
- OD 1 (serum QS 8 (MS+, remission)): 664 optical density (×1000)
- OD 2 (serum QS 8 (MS+, remission)): 635 optical density (×1000)
- OD 3 (serum QS 8 (MS+, remission)): 545 optical density (×1000)
- MEAN (serum QS 11 (MS+, remission)): 235 optical density (×1000)
- OD 1 (serum QS 11 (MS+, remission)): 429 optical density (×1000)
- OD 2 (serum QS 11 (MS+, remission)): 169 optical density (×1000)
- OD 3 (serum QS 11 (MS+, remission)): 108 optical density (×1000)
- MEAN (serum QS 12 (MS+, remission)): 398 optical density (×1000)
- OD 1 (serum QS 12 (MS+, remission)): 405 optical density (×1000)
- OD 2 (serum QS 12 (MS+, remission)): 472 optical density (×1000)
- OD 3 (serum QS 12 (MS+, remission)): 316 optical density (×1000)
